Data published in patent US8143402B2, “Polymorphic forms of a macrocyclic inhibitor of HCV” (Tibotec Pharmaceuticals Ltd., priority 2007, dated 2012).
Read-outs that look alike come from different tables or passages of the source.

Legend:
Type in all cases: physicochemical
[1] = Stability of the polymorphic forms; details: compared among the polymorphic forms
[2] = Hygroscopicity of the polymorphic forms; details: compared among the polymorphic forms
[3] = Solubility of Form I and Form II in different solvents (excess shaken 24 hours at 20° C., filtration, UV spectrometry); details: for solubility thermodynamic at 24 h: thermodynamic from solid, read-out: Solubility in g/100 mL of solution
Protocol: An excess of product (Form I or Form II, where appropriate) was shaken with the relevant solvent during 24 hours at 20° C. After filtration, the concentration of the product in solution was determined with UV spectrometry.

Intrinsic dissolution = details: compared with Form I
[4] = 1-methoxy-2-propanol, 24 hours at 20° C.
[5] = 2-propanol/dichloromethane (97/3) (v/v), 24 hours at 20° C.
[6] = 2-propanone, 24 hours at 20° C.
[7] = 4-methyl-2-pentanone, 24 hours at 20° C.
[8] = acetonitrile, 24 hours at 20° C.
[9] = ethanol/water (95/5) (v/v), 24 hours at 20° C.

Solubility in g/100 mL of solution [3, 4] [g/100 mL]	Solubility in g/100 mL of solution ([3]; 2-butanone, 24 hours at 20° C.) [g/100 mL]	Solubility in g/100 mL of solution [3, 5] [g/100 mL]	Solubility in g/100 mL of solution ([3]; 2-propanol, 24 hours at 20° C.) [g/100 mL]	Solubility in g/100 mL of solution [3, 6] [g/100 mL]	Solubility in g/100 mL of solution [3, 7] [g/100 mL]	Solubility in g/100 mL of solution [3, 8] [g/100 mL]	Solubility in g/100 mL of solution [3, 9] [g/100 mL]	Solubility in g/100 mL of solution ([3]; ethanol, 24 hours at 20° C.) [g/100 mL]	Solubility in g/100 mL of solution ([3]; methanol, 24 hours at 20° C.) [g/100 mL]	Solubility in g/100 mL of solution ([3]; toluene, 24 hours at 20° C.) [g/100 mL]	SMILES	Stability of the polymorph form [1]	also measured
0.82	0.87	0.045	0.027	0.66	0.28	0.075	0.078	0.050	0.056	0.086	COc1ccc2c(O[C@@H]3C[C@H]4C(=O)N[C@]5(C(=O)NS(=O)(=O)C6CC6)C[C@H]5/C=C\CCCCN(C)C(=O)[C@@H]4C3)cc(-c3nc(C(C)C)cs3)nc2c1C [Form I]	most stable form	Hygroscopicity [2]: least hygroscopic form; Solubility in g/100 mL of solution ([3]; N,N-dimethylacetamide*, 125 mg of Form I was dissolved in 0.5 mL of N,N-dimethylacetamide): >20 g/100 mL; Solubility in g/100 mL of solution ([3]; N,N-dimethylacetamide, 24 hours at 20° C.): 16 g/100 mL; Solubility in g/100 mL of solution ([3]; acetic acid, 24 hours at 20° C.): 1.7 g/100 mL; solubility thermodynamic at 24 h ([3]; aqueous with cosolvent or surfactant or cyclodextrin, acetic acid/water (10/90) (v/v) (pH = 2.2), 24 hours at 20° C.): < 10 µg/mL; Solubility in g/100 mL of solution ([3]; dichloromethane, 24 hours at 20° C.): 8.5 g/100 mL; Solubility in g/100 mL of solution ([3]; ethyl acetate, 24 hours at 20° C.): 0.21 g/100 mL; Solubility in g/100 mL of solution ([3]; methanol/dichloromethane (50/50) (v/v), 24 hours at 20° C.): 8.3 g/100 mL; Solubility in g/100 mL of solution ([3]; tetrahydrofuran, 24 hours at 20° C.): 7.0 g/100 mL; solubility thermodynamic at 24 h ([3]; water (pH = 5.0), 24 hours at 20° C.): < 10 µg/mL
1.6	2.5	0.19	0.11	1.2	0.81	0.20	0.27	0.17	0.29	0.43	COc1ccc2c(O[C@@H]3C[C@H]4C(=O)N[C@]5(C(=O)NS(=O)(=O)C6CC6)C[C@H]5/C=C\CCCCN(C)C(=O)[C@@H]4C3)cc(-c3nc(C(C)C)cs3)nc2c1C [Form II]	less stable but nevertheless sufficiently stable	Intrinsic dissolution (Intrinsic dissolution): greater than that of Form I; Solubility in g/100 mL of solution ([3]; 1-butanol, 24 hours at 20° C.): 0.31 g/100 mL
